Test results from US20210121456A1, “USE OF METHYLNALTREXONE TO ATTENUATE TUMOR PROGRESSION” (Salix Pharmaceuticals, Inc., priority 2014, published 2021).

Tested on: patients with advanced cancers (and non-cancer advanced illness) and opioid-induced constipation
Experiment: Pooled post-hoc analysis of Study 1 and Study 2: deaths and overall survival
Assay type: in vivo, human
Experimental: Routine adverse event (AE) evaluations described in Example 3 were analyzed. AEs of tumor progression in specific cancers and survival analysis of the placebo and methylnaltrexone-treated cohorts in the clinical studies were tabulated. Both studies were randomized, placebo-controlled trials that involved a 2-week treatment period followed by a 2-week follow-up period. The enrolled subjects were advanced illness (incurable cancer or other end-stage disease) subjects with OIC who were receiving stable doses of laxatives and opioid analgesics. In the context of the study, a stable dose of opioid analgesics was defined as no reduction in the dose of opioid analgesic of ≥50% for at least three days before the first dose of MNTX. A stable dose of laxatives was defined as having a standing laxative order (and not PRN, or as-needed) for at least three days before the first dose of MNTX. A diagnosis of constipation was provided if the subject had (a) fewer than 3 bowel movements during the previous week by history and no clinically notable laxation in the 24 hours before the first dose of MNTX, or (b) no clinical notable laxation in the 48 hours before the first dose of MNTX. In Study 1 (Example 1), subjects received subcutaneous MNTX 0.15 mg/kg or placebo (PBO) every other day (QOD), and in Study 2 (Example 2) subjects received subcutaneous MNTX (8 mg or 12 mg based on body weight 38 to <62 kg or ≥62 kg, respectively) or placebo administered QOD. The 12 mg fixed dose was designed to correspond to the 0.15 mg/kg weight-based dose. Rescue-laxatives, enemas or manual disimpactions were not administered within 4 hours before or after each dose of MNTX. […] For statistical significance testing, the Fisher's exact test was used (p<0.05).
Subsequent to the initial pooled analysis in Example 3, the data from Study 1 and Study 2 was re-analyzed for overall survival (OS) in a post-hoc analysis. Overall survival (OS) was defined as the time interval from the treatment initiation to the date of death or the date of last follow up, whichever occurred first. […] In Study 2, 151 of the enrolled 229 patients were diagnosed with advanced cancers. […] FIG. 12 provides a schematic of the subjects with advanced cancers from the pooled studies that were analyzed in the subsequent analysis. Table 3 provides the patient characteristics from the subsequent pooled analysis of the two studies. Table 4 provides a distribution of the type of cancer diagnosed in the subjects analyzed for survival.
Table 7 lists the number of deaths and survivors in both the placebo and the methylnaltrexone-treated groups for subjects diagnosed with lung, breast, prostate, pancreatic and colon cancer. The groups are further categorized into methylnaltrexone responders and methylnaltrexone non-responders alone or in combination with the placebo group. The analysis included the results from the double-blind and open label phases of the studies. When the group of MNTX-treated subjects across both studies was examined, there was a significant difference in the percentage of subject deaths between the MNTX-responsive group and the MNTX non-responsive group, with the number of survivors in the MNTX-responsive group exceeding the number of survivors in the MNTX non-responsive group. […] For the analysis in Table 7, a subject with laxation within 0-4 hours after two of the first four doses of MNTX was considered a responder. The data in Table 6 may vary slightly from that in Table 4 based on how the subjects were coded as cancer patients during analysis of the data. […]
For the analysis carried out in this Example and in Example 3, a subject with laxation occurring from 0-4 hours after two of the first four doses of MNTX was considered a MNTX responder or responsive subject. Data for placebo patients who elected to participate in the open-label MNTX treatment phase was collected from the first 4 doses of open-label treatment. […]

[1] = Excluding crossover to MNTX (MNTX 117, placebo 61)
[2] = Patients on placebo (crossover to MNTX 51, placebo 61)
[3] = Table 6, Non-Responders (versus Responders < 4hr)
[4] = Table 6, Non-Responders (versus Responders < 8hr)
[5] = Table 6, Non-Responders (versus Responders < 12hr)
[6] = Table 6, Non-Responders (versus Responders < 24hr)
[7] = Table 7, MNTX All, Total of five cancers
[8] = Table 7, MNTX Non-Responders, Breast
[9] = Table 7, MNTX Non-Responders, Colon
[10] = Table 7, MNTX Non-Responders, Lung
[11] = Table 7, MNTX Non-Responders, Pancreas
[12] = Table 7, MNTX Non-Responders, Prostate
[13] = Table 7, MNTX Non-Responders, Total of five cancers
[14] = Table 7, MNTX Responders, Breast
[15] = Table 7, MNTX Responders, Colon
[16] = Table 7, MNTX Responders, Pancreas
[17] = Table 7, MNTX Responders, Prostate
[18] = Table 7, MNTX Responders, Total of five cancers

Compound: C[N@+]1(CC2CC2)CC[C@]23c4c5ccc(O)c4O[C@H]2C(=O)CC[C@@]3(O)[C@H]1C5.[Br-] [MNTX, (R)—N-(cyclopropylmethyl) noroxymorphone methobromide]
- overall survival MNTX vs. placebo (134 patients with advanced illness other than cancer, p=0.88): no difference
- Hazard Ratio, Treatment: MNTX vs. placebo (overall survival, Cox regression) (All patients (MNTX 117, placebo 112)): 0.70
- Hazard Ratio, Response vs. no response [1]: 0.32
- Hazard Ratio, Treatment: MNTX vs. placebo [1]: 0.32
- Deaths (number) (MNTX All Patients, Cancer): 45
- Deaths (number) (MNTX All Patients, Non-Cancer): 11
- Deaths (%) (MNTX All Patients, Totals): (31.3%)
- Deaths (number) (MNTX All Patients, Totals): 56
- Deaths (number) (MNTX Non-Responders, Cancer): 23
- Deaths (number) (MNTX Non-Responders, Non-Cancer): 5
- Deaths (%) (MNTX Non-Responders, Totals): (39.4%)
- Deaths (number) (MNTX Non-Responders, Totals): 28
- Deaths (number) (MNTX Responders, Cancer): 22
- Deaths (number) (MNTX Responders, Non-Cancer): 6
- Deaths (%) (MNTX Responders, Totals): (25.9%)
- Deaths (number) (MNTX Responders, Totals): 28
- median overall survival (OS) (MNTX non-responsive group (45 subjects)): 58 days
- overall survival (OS) (MNTX-responsive group, analysis before the updated analysis (FIG. 9)): 121 days
- Hazard Ratio, Response vs. no response [2]: 0.64
- Hazard Ratio, Treatment: MNTX vs. placebo [2]: 0.15
- % Deaths [3]: 50.0%
- Deaths [3]: 22
- Survivors [3]: 22
- % Deaths [4]: 53.8%
- Deaths [4]: 21
- Survivors [4]: 18
- % Deaths [5]: 50.0%
- Deaths [5]: 18
- Survivors [5]: 18
- % Deaths [6]: 48.4%
- Deaths [6]: 15
- Survivors [6]: 16
- % Deaths (Table 6, Responders < 4hr): 31.5%
- Deaths (Table 6, Responders < 4hr): 23
- Survivors (Table 6, Responders < 4hr): 50
- % Deaths (Table 6, Responders < 8hr): 30.8%
- Deaths (Table 6, Responders < 8hr): 24
- Survivors (Table 6, Responders < 8hr): 54
- % Deaths (Table 6, Responders < 12hr): 33.3%
- Deaths (Table 6, Responders < 12hr): 27
- Survivors (Table 6, Responders < 12hr): 54
- % Deaths (Table 6, Responders < 24hr): 34.9%
- Deaths (Table 6, Responders < 24hr): 30
- Survivors (Table 6, Responders < 24hr): 56
- Deaths (Table 7, MNTX All, Breast): 3
- Deaths (%) (Table 7, MNTX All, Breast): 21.4%
- Survivors (Table 7, MNTX All, Breast): 11
- Deaths (Table 7, MNTX All, Colon): 1
- Deaths (%) (Table 7, MNTX All, Colon): 25.0%
- Survivors (Table 7, MNTX All, Colon): 3
- Deaths (Table 7, MNTX All, Lung): 14
- Deaths (%) (Table 7, MNTX All, Lung): 45.2%
- Survivors (Table 7, MNTX All, Lung): 17
- Deaths (Table 7, MNTX All, Pancreas): 3
- Deaths (%) (Table 7, MNTX All, Pancreas): 33.3%
- Survivors (Table 7, MNTX All, Pancreas): 6
- Deaths (Table 7, MNTX All, Prostate): 5
- Deaths (%) (Table 7, MNTX All, Prostate): 41.7%
- Survivors (Table 7, MNTX All, Prostate): 7
- Deaths [7]: 26
- Deaths (%) [7]: 37.7%
- Survivors [7]: 43
- Deaths [8]: 2
- Deaths (%) [8]: 50.0%
- Survivors [8]: 2
- Deaths [9]: 0
- Deaths (%) [9]: 0.0%
- Survivors [9]: 1
- Deaths [10]: 8
- Deaths (%) [10]: 47.1%
- Survivors [10]: 9
- Deaths [11]: 3
- Deaths (%) [11]: 75.0%
- Survivors [11]: 1
- Deaths [12]: 3
- Deaths (%) [12]: 60.0%
- Survivors [12]: 2
- Deaths [13]: 16
- Deaths (%) [13]: 51.6%
- Survivors [13]: 15
- Deaths (Table 7, MNTX Responders (laxation within 0-4 hours after two of the first four doses), Lung): 6
- Deaths [14]: 1
- Deaths (%) [14]: 10.0%
- Survivors [14]: 9
- Deaths [15]: 1
- Deaths (%) [15]: 33.3%
- Survivors [15]: 2
- Deaths (%) (Table 7, MNTX Responders, Lung): 42.9%
- Survivors (Table 7, MNTX Responders, Lung): 8
- Deaths [16]: 0
- Deaths (%) [16]: 0.0%
- Survivors [16]: 5
- Deaths [17]: 2
- Deaths (%) [17]: 28.6%
- Survivors [17]: 5
- Deaths [18]: 10
- Deaths (%) [18]: 26.3%
- Survivors [18]: 28
- median overall survival (OS) (cancer patients treated with MNTX (n=117)): 76 days
- median overall survival (OS) (cancer patients with response to MNTX (n=72)): 118 days
- median OS (lung cancer patients (n=15) with response to MNTX): 118 days
- median OS (lung cancer, 32 patients treated with MNTX): 118 days
- Deaths (pancreatic cancer, 4 patients with response to MNTX): no death
- median OS (pancreatic cancer, 8 patients treated with MNTX): 76 days
- survival extended after administration (pancreatic cancer, methylnaltrexone-responsive group, initial analysis (FIG. 12)): ~100 days
- median OS (placebo patients (n=23) with response to MNTX during open-label treatment): 74 days
- median overall survival (placebo patients (n=56) who crossed over to MNTX): 75 days
